From patent US5962487A, “Antipicornaviral compounds and methods for their use and preparation” (Agouron Pharmaceuticals, Inc., priority 1997, dated 1999) come the findings set out here.

The structures appear in SMILES notation.

The term EC50 denotes the midpoint of the concentration-response curve. A low value points to greater potency. In general, CC50 refers to the concentration at which the toxic effect on the cells reaches its halfway point. A low value points to greater toxicity to the cells.

Data set [1] deals with T1, Rhinovirus 3C protease (RVP) serotype 2 (Human rhinovirus 2, UniProt P04936).
T1 construct: Recombinant Rhinovirus 3C proteases from serotypes 14, 16, 2 or 89 were prepared; made in house
T1 sequence (P04936 1508-1690): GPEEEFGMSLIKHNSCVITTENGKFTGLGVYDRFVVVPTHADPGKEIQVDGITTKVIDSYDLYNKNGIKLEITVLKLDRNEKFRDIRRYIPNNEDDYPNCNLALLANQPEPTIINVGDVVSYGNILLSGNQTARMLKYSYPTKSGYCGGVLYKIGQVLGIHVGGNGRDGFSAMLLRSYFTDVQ
Briefly: Inhibition of Rhinovirus Protease, serotype 2 (FRET assay). It counts as biochemical. The settings on record: enzyme start experiments, read-out: kobs/I. As for the experimental part:
Stock solutions (50 mM, in DMSO) of various compounds were prepared; dilutions were in the same solvent. Recombinant Rhinovirus 3C proteases from serotypes 14, 16, 2 or 89 were prepared by the following standard chromatographic procedures: (1) ion exchange using Q Sepharose Fast Flow from Pharmacia; (2) affinity chromatography using Affi-Gel Blue from Biorad; and (3) sizing using Sephadex G-100 from Pharmacia. Assays contained 2% DMSO, 50 mM tris pH 7.6, 1 mM EDTA, a compound at the indicated concentrations, approximately 1 μM substrate, and 50-100 nM protease. For Ki determinations, the compound and the enzyme were preincubated for 10 minutes at 30° C. prior to addition of the substrate (substrate start). The kobs/I values were obtained from reactions initiated by addition of enzyme rather than substrate. RVP activity is measured in the fluorescence resonance energy transfer assay. The substrate was (N-terminal) DABCYL-(Gly-Arg-Ala-Val-Phe-Gln-Gly-Pro-Val-Gly)-EDANS. In the uncleaved peptide, the EDANS fluorescence was quenched by the proximal DABCYL moiety. When the peptide was cleaved, the quenching was relieved, and activity was measured as an increase in fluorescence signal.
In the above table, all data is for RVP serotype-14 unless otherwise noted in parentheses. All strains of human rhinovirus (HRV) were purchased from American Type Culture Collection (ATCC), except for serotype 14, which was produced from the infectious cDNA clone constructed and supplied to us by Dr. Roland Rueckert at the Institute for Molecular Virology, University of Wisconsin, Madison, Wis. The column designated INHIB represents the percent inhibition, with the concentration of the compound in μM indicated in parentheses, unless Ki was assigned as designated by (Ki), at 10 minute preincubation with 50 nM RVP prior to addition of substrate was used. The data in the column designated kobs/I was measured from progress curves in enzyme start experiments.

The test system of the next data set is HRV-14. Put plainly: Antirhinoviral HI-HeLa Cell Culture Assay (cell protection, XTT), HRV-14. It counts as cell-based, human rhinovirus. The gist of the method: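 Read-out is XTT/PMS formazan at 450/650 nm, measured two days after compound exposure of HI-HeLa cells (8×10^5 cells/mL) infected at m.o.i. 0.13 or mock-infected. EC50: protection to 50% of compound-free mock-infected signal; CC50: 50% loss in mock-infected cells; TI is their ratio.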
For orientation: Tetrazolium assays rely on reduction of a dye to a coloured formazan, in cell work by metabolically active cells.

Another data set has as its system CVB-3. Put plainly: Anticoxsackieviral HI-HeLa Cell Culture Assay, CVB-3. It counts as cell-based, Coxsackie strain B-3. As for the experimental part:
(§1) The ability of compounds to protect cells against CVA-21 or CVB-3 infection was measured by the XTT dye reduction method. Briefly, HI-HeLa cells were infected with CVA-21 or CVB-3 at a multiplicity of infection (m.o.i.) of 0.05 (CVA-21) and 0.08 (CVB-3) or mock-infected with medium only. Infected or uninfected cells were resuspended at 4×10^4 cells per mL and incubated with appropriate concentrations of drug. One day later, XTT/PMS was added to test plates, and the amount of formazan produced was quantified spectrophotometrically at 450/650 nm. The EC50 was calculated as the concentration of drug that increased the percentage of formazan production in drug-treated, virus-infected cells to 50% of that produced by drug-free, uninfected cells. The 50% cytotoxic dose (CC50) was calculated as the concentration of drug that decreased the percentage of formazan produced in drug-treated, uninfected cells to 50% of that produced in drug-free, uninfected cells. The therapeutic index (TI) was calculated by dividing the CC50 by the EC50.
(§2) The Coxsackie strains A-21 (CVA-21) and B-3 (CVB-3) were purchased from American Type Culture Collection (ATCC). Virus stocks were propagated and antiviral assays were performed in HI-HeLa cells (ATCC). Cells were grown in Minimal Essential Medium with 10% fetal bovine serum.

The subject of a further data set is CVA-21. Briefly: Anticoxsackieviral HI-HeLa Cell Culture Assay, CVA-21. It counts as cell-based, Coxsackie strain A-21. Here is the method:
as §1, §2

The next data set is described as follows: in vitro. It counts as cell-based. The settings on record: human, hi-hela cells. Here is the method: as §1, §2

For the molecule `CCOC(=O)/C=C/[C@H](CCC(N)=O)NC(=O)[C@H](Cc1ccccc1)N(C)C(=O)[C@H](CC(C)C)NC(=O)OCc1ccccc1` [Compound 2, Ethyl-3-(CBZ-L-Leu-L-N-Me-Phe-L-Gln)-E-Propenoate], the kinact/KI in data set [1] came out at 617 M⁻¹ s⁻¹. The TI with HRV-14 (CC50/EC50, HRV serotype-14, 2880 min) is on record as 56; in the data set with CVB-3 (CC50/EC50, CVB-3), 28; in the data set on CVA-21 (CC50/EC50, CVA-21) it was 17. For the same molecule, the half-maximal effective concentration (EC50) was 1 µM with HRV-14 (Rhinovirus B, HRV14, 48 h, HRV serotype-14 infected HI-HeLa cells, XTT, two days); 2 µM with CVB-3 (24 h, CVB-3 infection of Hi-HeLa cells, XTT, one day); 3.3 µM with CVA-21 (24 h, CVA-21 infection of Hi-HeLa cells, XTT, one day). The same molecule showed a CC50 at 24 h in “in vitro” of 56 µM.
